Test results published in patent US8809341B2, “2,4-pyrimidinediamine compounds and uses as anti-proliferative agents” (Rigel Pharmaceuticals, Inc., priority 2003, dated 2014).
Read-outs that look alike come from different tables or passages of the source.

Key:
Format in all cases: cell-based
H1299 cells = experiment: in vitro antiproliferation assay, H1299 (lung)
Outline: (§1)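 IC50 values came from standard antiproliferation testing in cultured tumour cells; the A549 and H1299 lines are of lung origin.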

A549 cells = experiment: in vitro antiproliferation assay, A549 (lung)
Outline: as §1

PC3 = experiment: in vitro antiproliferation assay, PC3 (prostate)
Procedure: (§2) The IC50 values of various compounds against a various different tumor cell lines were determined using standard in vitro antiproliferation assays. The tumor cell lines tested were as follows: A549 (lung); H1299 (lung), ACHN (kidney/p53 wt), CAKI (renal cell carcinoma), NCI-H460 (lung); HCT116 (colon/p53w0; HELA (cervix/p53 wt), HUH7 (liver/p53 wt), HUVEC (primary endothelial), LNCAP (prostate), HT-29 (colon); MCF-7 (breast); MCF-7 (breast/ER positive), MDA MB435S (breast); MDA MB231 (breast/ER negative), DU145 (prostate); BxPC-3 (pancreatic); SKOV-3 (ovarian); HepG2 (hepatic), NDHF primary normal human dermal fibroblast), SKMEL28 (breast/p53mut), SKMEL5 (breast/p53 wt), U20S (bone) and PC3 (prostate). […] A blank indicates the specified compound was not tested against the specified cell line.
(§3) Many of the compounds were tested against other cell lines. Their activity is reported in TABLE 15, below, where +”, “−”, “−/+” or “+/−” values are as described for TABLES 1-14. Where the cell line includes a value in a parenthetical, the value indicates the seeding density at which the assay was performed

CAKI = experiment: in vitro antiproliferation assay, CAKI (renal cell carcinoma)
Procedure: as §2, §3

SKMEL5 = experiment: in vitro antiproliferation assay, SKMEL5
Procedure: as §2, §3

SKMEL28 = experiment: in vitro antiproliferation assay, SKMEL28 (breast/p53mut)
Procedure: as §2, §3

ACHN = experiment: in vitro antiproliferation assay, ACHN (kidney/p53 wt)
Procedure: as §2, §3

HUVEC = experiment: in vitro antiproliferation assay, HUVEC (primary endothelial)
Procedure: as §2, §3

HCT116 = experiment: in vitro antiproliferation assay, HCT116 (colon)
Outline: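 Standard in vitro antiproliferation assays were used to determine IC50 values against the listed line. A parenthetical value after a cell line name denotes the assay's seeding density.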

LNCAP = experiment: in vitro antiproliferation assay, LNCAP (prostate)
Procedure: as §2, §3

NDHF = experiment: in vitro antiproliferation assay, NDHF (primary normal human dermal fibroblast)
Procedure: as §2, §3

HUH7 = experiment: in vitro antiproliferation assay, HUH7 (liver/p53 wt)
Procedure: as §2, §3

U20S = experiment: in vitro antiproliferation assay, U20S (bone)
Procedure: as §2, §3

HELA = experiment: in vitro antiproliferation assay, HELA (cervix/p53 wt)
Procedure: as §2, §3

MCF-7 = experiment: in vitro antiproliferation assay, MCF-7 (breast/ER positive)
Procedure: as §2, §3

MDA MB231 = experiment: in vitro antiproliferation assay, MDA MB231 (breast/ER negative)
Procedure: as §2, §3

[1] = H1299 (lung) cells, in vitro antiproliferation
[2] = A549 (lung) cells, in vitro antiproliferation
[3] = HCT116 (colon), read-out: HCT116
[4] = Table 5, in vitro antiproliferation, A549 (lung) cells
[5] = H1299 (lung) cells, antiproliferation
[6] = A549 (lung) cells, antiproliferation
[7] = IC50 class against H1299 (lung) tumor cells
[8] = IC50 class against A549 (lung) tumor cells
[9] = Table 5, in vitro antiproliferation, H1299 (lung) cells
[10] = Table 7, in vitro antiproliferation, A549 (lung) cells
[11] = Table 7, in vitro antiproliferation, colon cells, read-out: HTC116
[12] = MCF7, seeding density 2K, read-out: MCF7(2K)
[13] = MCF7, seeding density 4K, read-out: MCF7(4K)
[14] = MDA-MB-231, seeding density 2K, read-out: MDA-MB-231(2K)
[15] = MDA-MB-231, seeding density 4K, read-out: MDA-MB-231(4K)

SMILES	IC50 (PC3) [µM]	IC50 (SKMEL5) [µM]	IC50 (SKMEL28) [µM]	IC50 (ACHN) [µM]	IC50 (HCT116; [3]) [µM]	IC50 (H1299 cells; [5]) [µM]	IC50 (A549 cells; [6]) [µM]	further results
CCOC(=O)COc1cccc(Nc2ncc(F)c(Nc3cc(OC)cc(OC)c3)n2)c1 [compound 766]	> 20	–	–	–	–	–	–	IC50 (H1299 cells; [1]): ≤ 20 µM; IC50 (A549 cells; [2]): > 20 µM
COc1cc(Nc2nc(Nc3cc(C)cc(C)c3)ncc2F)cc(OC)c1 [compound 846]	–	≤ 20	≤ 20	≤ 20	≤ 20	–	–	IC50 (CAKI): ≤ 20 µM; IC50 (H1299 cells; [1]): ≤ 20 µM; IC50 (A549 cells; [2]): ≤ 20 µM; IC50 (HUVEC): ≤ 20 µM
CNC(=O)COc1cccc(Nc2ncc(F)c(Nc3ccc4c(c3)OC(F)(F)C(F)(F)O4)n2)c1 [compound 503]	> 20	–	–	–	≤ 20	–	–	IC50 (A549 cells; [4]): < 20 µM
Fc1cnc(Nc2ccc(N3CCOCC3)cc2)nc1NC1CC1 [compound 101]	–	≤ 20	≤ 20	≤ 20	≤ 20	–	–	IC50 (CAKI): ≤ 20 µM; IC50 (H1299 cells; [7]): ≤ 20 µM; IC50 (A549 cells; [8]): ≤ 20 µM
COc1cc(Nc2ncc(F)c(Nc3ccc4c(c3)OCCO4)n2)cc(OC)c1 [compound 512]	> 20	≤ 20	≤ 20	≤ 20	> 20	–	–	IC50 (LNCAP): ≤ 20 µM; IC50 (H1299 cells; [9]): ≤ 20 µM; IC50 (NDHF): ≤ 20 µM; IC50 (HUH7): ≤ 20 µM; IC50 (A549 cells; [4]): ≤ 20 µM; IC50 (HUVEC): ≤ 20 µM; IC50 (U20S): ≤ 20 µM; IC50 (HELA): ≤ 20 µM
O=C(c1cc2cc(Nc3ncc(F)c(Nc4ccc5c(c4)OCCO5)n3)ccc2o1)N1CCCNCC1 [compound 644]	> 20	–	–	–	≤ 20	–	–	IC50 (A549 cells; [10]): ≤ 20 µM; IC50 (HCT116; [11]): ≤ 20 µM
CCOC(=O)COc1cccc(Nc2nc(Nc3cccc(O)c3)ncc2F)c1 [compound 763]	> 20	–	–	–	–	–	–	IC50 (H1299 cells; [1]): ≤ 20 µM; IC50 (A549 cells; [2]): > 20 µM
CNC(=O)COc1cccc(Nc2ncc(F)c(NC3CC3)n2)c1 [compound 106]	–	≤ 20	≤ 20	≤ 20	≤ 20	–	–	IC50 (CAKI): ≤ 20 µM; IC50 (H1299 cells; [7]): ≤ 20 µM; IC50 (A549 cells; [8]): ≤ 20 µM
COc1cc(OC)cc(N(C)c2nc(Nc3cc(C)cc(C)c3)ncc2F)c1 [compound 851]	–	–	–	–	≤ 20	–	–	IC50 (H1299 cells; [1]): ≤ 20 µM; IC50 (A549 cells; [2]): ≤ 20 µM; IC50 (U20S): ≤ 20 µM; IC50 (HELA): ≤ 20 µM
COc1c(C)cc(Nc2ncc(F)c(Nc3ccc4c(c3)NC(=O)C(C)(C)O4)n2)cc1Cl [compound 359]	–	–	–	–	> 20	–	–	IC50 (HUH7): ≤ 20 µM
CNC(=O)COc1cccc(Nc2ncc(F)c(Nc3ccc4c(c3)NC(=O)C(C)(C)O4)n2)c1 [compound 355]	≤ 20	–	–	–	> 20	–	–	IC50 (HUH7): ≤ 20 µM
Cc1cc(Nc2ncc(F)c(Nc3ccc4c(c3)OCCO4)n2)cc(C(F)(F)F)c1 [compound 523]	–	≤ 20	≤ 20	≤ 20	> 20	–	–	IC50 (LNCAP): ≤ 20 µM; IC50 (H1299 cells; [9]): ≤ 20 µM; IC50 (NDHF): ≤ 20 µM; IC50 (HUH7): ≤ 20 µM; IC50 (A549 cells; [4]): > 20 µM; IC50 (HUVEC): ≤ 20 µM; IC50 (U20S): ≤ 20 µM; IC50 (HELA): ≤ 20 µM
CNC(=O)c1cc2cccc(Nc3ncc(F)c(Nc4cc(OC)cc(OC)c4)n3)c2[nH]1 [compound 654]	–	≤ 20	≤ 20	≤ 20	–	–	–	IC50 (CAKI): ≤ 20 µM; IC50 (H1299 cells; Table 7, in vitro antiproliferation, H1299 (lung) cells): ≤ 20 µM; IC50 (A549 cells; [10]): ≤ 20 µM
COc1ccc(N(C)c2nc(Nc3cccc(-c4ncco4)c3)ncc2F)cc1OC [compound 868]	–	≤ 20	≤ 20	≤ 20	≤ 20	–	–	IC50 (CAKI): ≤ 20 µM; IC50 (H1299 cells; [1]): ≤ 20 µM; IC50 (A549 cells; [2]): ≤ 20 µM; IC50 (U20S): ≤ 20 µM
Cc1cc(C)cc(Nc2ncc(F)c(Nc3ccc(Cl)c(Cl)c3)n2)c1 [compound 838]	–	–	–	–	–	–	–	IC50 (H1299 cells; [1]): > 20 µM; IC50 (A549 cells; [2]): ≤ 20 µM; IC50 (HUVEC): > 20 µM
COc1cc(Nc2ncc(F)c(Nc3ccc(Cl)c(Cl)c3)n2)cc(OC)c1 [compound 835]	–	–	–	–	≤ 20	–	–	IC50 (H1299 cells; [1]): ≤ 20 µM; IC50 (A549 cells; [2]): ≤ 20 µM; IC50 (HUVEC): ≤ 20 µM; IC50 (U20S): ≤ 20 µM
O=C(COc1cccc(Nc2ncc(F)c(NC3CC3)n2)c1)NC1CCC1 [compound 103]	–	≤ 20	≤ 20	≤ 20	≤ 20	–	–	IC50 (CAKI): ≤ 20 µM; IC50 (H1299 cells; [7]): ≤ 20 µM; IC50 (A549 cells; [8]): ≤ 20 µM
COc1ccc(Nc2nc(Nc3cccc(-c4ncco4)c3)ncc2F)cc1OC [compound 858]	–	≤ 20	≤ 20	≤ 20	≤ 20	–	–	IC50 (MCF-7; [12]): ≤ 20 µM; IC50 (MCF-7; [13]): ≤ 20 µM; IC50 (H1299 cells; [1]): ≤ 20 µM; IC50 (MDA MB231; [14]): ≤ 20 µM; IC50 (MDA MB231; [15]): ≤ 20 µM; IC50 (A549 cells; [2]): ≤ 20 µM; IC50 (U20S): ≤ 20 µM; IC50 (HELA): ≤ 20 µM
CN1CCN(c2ccc(Nc3ncc(F)c(N(C)C4CCC4)n3)cc2)CC1 [compound 125]	–	–	–	–	≤ 20	–	–	IC50 (MCF-7; [12]): ≤ 20 µM; IC50 (MCF-7; [13]): ≤ 20 µM; IC50 (H1299 cells; [7]): ≤ 20 µM; IC50 (MDA MB231; [14]): ≤ 20 µM; IC50 (MDA MB231; [15]): ≤ 20 µM; IC50 (A549 cells; [8]): ≤ 20 µM; IC50 (HELA): ≤ 20 µM
COc1ccc(N(C)c2nc(Nc3ccc(-c4ncco4)cc3)ncc2F)cc1OC [compound 869]	–	≤ 20	≤ 20	≤ 20	–	–	–	IC50 (H1299 cells; [1]): ≤ 20 µM; IC50 (A549 cells; [2]): ≤ 20 µM
CNC(=O)c1cc2cccc(Nc3ncc(F)c(Nc4ccc5c(c4)OCCO5)n3)c2[nH]1 [compound 649]	–	–	–	–	> 20	–	–	IC50 (LNCAP): ≤ 20 µM; IC50 (NDHF): ≤ 20 µM; IC50 (HUH7): ≤ 20 µM; IC50 (A549 cells; [10]): ≤ 20 µM; IC50 (HUVEC): ≤ 20 µM; IC50 (U20S): ≤ 20 µM; IC50 (HELA): ≤ 20 µM; IC50 (HCT116; [11]): ≤ 20 µM
O=C(COc1cccc(Nc2ncc(F)c(NC3CC3)n2)c1)NC1CC1 [compound 102]	–	≤ 20	≤ 20	≤ 20	≤ 20	–	–	IC50 (CAKI): ≤ 20 µM; IC50 (H1299 cells; [7]): ≤ 20 µM; IC50 (A549 cells; [8]): ≤ 20 µM

Now from value to compound, other results behind:

IC50 (PC3) [µM]	IC50 (SKMEL5) [µM]	IC50 (SKMEL28) [µM]	IC50 (ACHN) [µM]	IC50 (HCT116; [3]) [µM]	IC50 (H1299 cells; [5]) [µM]	IC50 (A549 cells; [6]) [µM]	SMILES	further results
> 20	–	–	–	–	> 20	> 20	CCOC(=O)COc1cccc(Nc2ncc(F)c(Nc3cccc(C(C)(C)C)c3)n2)c1 [compound 958]	–
> 20	–	–	–	–	> 20	> 20	CCOC(=O)COc1cccc(Nc2nc(Nc3cccc(C(C)(C)C)c3)ncc2F)c1 [compound 955]	–
> 20	–	–	–	–	> 20	> 20	CC(C)(C)c1cccc(Nc2nc(Nc3cccc(OCC(=O)O)c3)ncc2F)c1 [compound 962]	–
–	–	–	–	–	> 20	> 20	Cc1cc(C)cc(Nc2ncc(F)c(N(C)c3ccc(Cl)c(Cl)c3)n2)c1 [compound 1007]	IC50 (HUVEC): > 20 µM
–	–	–	–	–	≤ 20	≤ 20	CNC(=O)COc1cccc(Nc2ncc(F)c(Nc3ccc(Cl)c(Cl)c3)n2)c1 [compound 1006]	IC50 (HUVEC): ≤ 20 µM
≤ 20	–	–	–	≤ 20	–	≤ 20	Cc1cc(Nc2nc(Nc3cccc(OCCN4CCNCC4)c3)ncc2F)cc(Cl)c1O [compound 984]	–
–	–	–	–	–	> 20	> 20	COc1cc(Nc2ncc(F)c(N(C)c3ccc(Cl)c(Cl)c3)n2)cc(OC)c1 [compound 1009]	IC50 (HUVEC): ≤ 20 µM
≤ 20	–	≤ 20	–	≤ 20	≤ 20	≤ 20	Cc1cc(Nc2nc(Nc3cccc(OCCN4CCOCC4)c3)ncc2F)cc(C)c1O [compound 949]	–
> 20	–	–	–	–	≤ 20	> 20	Cc1cc(Nc2nc(Nc3cccc(OCC(=O)O)c3)ncc2F)cc(C)c1O [compound 979]	–
≤ 20	–	–	–	–	≤ 20	> 20	CCOC(=O)COc1cccc(Nc2ncc(F)c(Nc3cc(C)c(O)c(C)c3)n2)c1 [compound 947]	–
≤ 20	–	–	–	≤ 20	≤ 20	≤ 20	COc1cc(Nc2nc(Nc3cccc(OCCO)c3)ncc2F)cc(OC)c1 [compound 940]	–
